From patent US10906946B2, “Thrombin inhibitors” (priority 2015, dated 2021)
Values joined by “and” are separate entries in the source; they are usually repeats but may differ in a detail not shown here. Identical values can stand only once. Peptide text beside a SMILES is read from it.

Tests used:
thrombin = molecular target: T1, thrombin (Homo sapiens, UniProt P00734); assay: Cleavage of peptide by thrombin (RP-HPLC, ESI-MS); format: biochemical; conditions: peptide incubated with thrombin (30:1)
T1 construct: residues in the termini of the light chain; and in the autolysis loop and C-terminus of the heavy chain; purchased Chemo-Sero-Therapeutic Research Institute (Kaketsuken, Japan), as a gift, not bought
Procedure: A. Evaluation of avathrin cleavage by thrombin by HPLC chromatograms. Avathrin (150 μM) was incubated with thrombin (5 μM) for various times and the reaction mixtures were separated using RP-HPLC; the masses of the cleavage products were analyzed with ESI-MS. At 0 min (upper panel), a single peak corresponding to full length avathrin (mass 3139 Da) was identified. At 120 min (middle panel), two new peaks corresponding to N-terminal cleavage product (^1[…]^10 of SEQ ID NO: 1; mass 982 Da) and C-terminal cleavage product ([…] (SEQ ID NO: 4); mass 2176 Da) were identified in addition to avathrin peak. At 600 min (lower panel), two peaks corresponding to the N- and C-terminal cleaved products were observed while avathrin peak was not observed, indicating complete cleavage. B. Time-dependent cleavage of avathrin by thrombin. Relative percentages of avathrin, its N- and C-terminal cleavage products were quantified by calculating areas under the curve. Each data point is the mean±S.D. of at least three independent experiments. C. Effect of thrombin cleavage on inhibitory properties of avathrin. Avathrin was incubated with thrombin (0.81 nM) for up to 36 h, and assayed at different time points for its ability to inhibit thrombin amidolytic activity on the chromogenic substrate S2238. […]
Thrombin amidolytic activity assays for all peptides were performed in 96-wells microtiter plates in 50 mM Tris buffer (pH 7.4) containing 100 mM NaCl and 1 mg/ml bovine serum albumin. […] The rates of formation of p-nitroaniline were followed by measuring the absorbance at 405 nm for 10 min with a Tecan InfinitePro M200 microplate reader from Tecan (Männedorf, Switzerland). […] To measure the inhibitory constants, different concentrations of S2238 were used and the residual velocities were determined using the Morrison's tight binding equation. Inhibition of thrombin fibrinogenolytic activity of peptides were tested by measuring absorbance at 650 nm using a Sunrise microplate reader from Tecan (Männedorf, Switzerland) as described previously [Koh C Y, et al., J Biol Chem 282: 29101-13 (2007)]. […] Effects of avathrin on the amidolytic activities of these serine proteases were determined using respective chromogenic substrates. […] After different incubation times, reactions were quenched with 1% TFA (pH 1.8) and loaded onto a Jupiter Proteo column (4 μm, 90 Å, 100×1.0 mm) attached to a Dionex nano-HPLC system from Thermo Fisher Scientific (Waltham, Mass., USA) and eluted using an acetonitrile gradient with 0.05% TFA and 99.95% MilliQ water as eluent A and 0.05% TFA, 19.95% MilliQ water and 80% ACN as eluent B. Masses of all peaks were measured to identify cleavage products, which were subsequently quantified by integrating the peaks and calculating the area under the curves. […]

blood = assay: Anti-coagulation effect of peptides in blood tubes (visual clot formation); design: species or system human (healthy volunteers); conditions: room temperature
Procedure: (§1) Individual peptides are dissolved in phosphate buffered saline to prepare 10× peptide solutions (ie. concentrations of peptides are 10 times higher than the final concentrations at which they are to be tested). 0.3 ml of the 10× peptide solutions are placed in blood tubes without any additives. Blood was drawn from healthy volunteers using syringes and immediately transferred to a 50 ml conical centrifuge tube (Falcon tube) before pipetting 2.7 ml of the blood into blood tubes with peptide solutions. Final concentrations of peptides are as stated in Table 5 and 6.
Blood tubes with various peptides at different concentrations were left standing at room temperature until tested at designated times. At different time points, tubes were inverted several times and visually inspected for insoluble materials as indications of clot formation.

[1] = tested on: platelets (ADP-induced platelet aggregation); assay: Preservation of platelet function in blood tubes (Multiplate, ADP-induced platelet aggregation); format: cell-based, human (healthy volunteers); conditions: ADP agonist
Procedure: as §1
Blood tubes with various peptides at different concentrations were left standing at room temperature until tested at designated times. At different time points, tubes were inverted several times and blood samples were taken out for platelet aggregation tests using a Multiplate® Platelet aggregometer with adenosine diphosphate (ADP) as agonist according to manufacturer's recommended protocols.

[2] = tested on: FeCl3-induced carotid artery thrombosis; assay: Ferric chloride-induced carotid artery thrombosis model; format: in vivo, C57BL/6 male mice; conditions: mice, 10% FeCl3
Procedure: All animal experiments were carried out under protocol 041/12 approved by Institutional Animal Care and Use Committee, National University of Singapore. The ferric chloride induced carotid artery thrombosis model was performed as described previously [Eckly A, et al., J Thromb Haemost 9: 779-89 (2011)] with minor modifications. Typically, C57BL/6 male mice (9-11 weeks old, 24.5-27.5 g) were anesthetized with an intraperitoneal injection of ketamine (75 mg/kg) and medetomidine (1 mg/kg). 100 μL of different doses of avathrin were injected into the mice via tail vein. The right carotid artery was dissected using blunt dissection and a vascular injury was caused applying filter paper of 2 mm×2 mm saturated with FeCl3 on top of the carotid artery. After 3 min, the filter paper was removed and the vessel was washed with sterile normal saline. To determine the time to occlusion, a miniature Doppler flow probe (Transonic Systems Inc., Ithaca, N.Y., USA) was placed around the carotid artery and blood flow was recorded using a Transonic® flow meter from ADInstruments (Dunedin, New Zealand). The maximal time for monitoring the blood flow after injury was 30 min. Mice were euthanized by cervical dislocation immediately after the completion of the experiment and prior to recovery from anesthesia.

human α-thrombin = molecular target: T2, human α-thrombin (Homo sapiens, UniProt P00734); assay: Thrombin amidolytic activity assay with chromogenic substrate S2238; format: biochemical
T2 construct: residues in the termini of the light chain; purchased Chemo-Sero-Therapeutic Research Institute (Kaketsuken, Japan), as a gift, not bought
Procedure: Thrombin amidolytic activity assays for all peptides were performed in 96-wells microtiter plates in 50 mM Tris buffer (pH 7.4) containing 100 mM NaCl and 1 mg/ml bovine serum albumin. […] The rates of formation of p-nitroaniline were followed by measuring the absorbance at 405 nm for 10 min with a Tecan InfinitePro M200 microplate reader from Tecan (Männedorf, Switzerland). Dose-response curves were fitted using the GraphPad Prizm software (San Diego, Calif., USA) to calculate IC50 values and Hill coefficients. To measure the inhibitory constants, different concentrations of S2238 were used and the residual velocities were determined using the Morrison's tight binding equation. Inhibition of thrombin fibrinogenolytic activity of peptides were tested by measuring absorbance at 650 nm using a Sunrise microplate reader from Tecan (Männedorf, Switzerland) as described previously [Koh C Y, et al., J Biol Chem 282: 29101-13 (2007)]. The selectivity of avathrin was examined against 13 serine proteases (FIG. 5). Effects of avathrin on the amidolytic activities of these serine proteases were determined using respective chromogenic substrates. […] Avathrin (150 μM) was incubated with thrombin (5 μM), in 50 mM Tris buffer (pH 7.4) containing 150 mM NaCl and 1 mg/ml BSA. After different incubation times, reactions were quenched with 1% TFA (pH 1.8) and loaded onto a Jupiter Proteo column (4 μm, 90 Å, 100×1.0 mm) attached to a Dionex nano-HPLC system from Thermo Fisher Scientific (Waltham, Mass., USA) and eluted using an acetonitrile gradient with 0.05% TFA and 99.95% MilliQ water as eluent A and 0.05% TFA, 19.95% MilliQ water and 80% ACN as eluent B. Masses of all peaks were measured to identify cleavage products, which were subsequently quantified by integrating the peaks and calculating the area under the curves. To measure the effect of different pre-incubation times on the thrombin inhibitory activity, amidolytic assays were performed for various incubation times (up to 36 h).

`CC[C@H](C)[C@H](NC(=O)[C@H](C)NC(=O)[C@H](CCC(=O)O)NC(=O)[C@H](Cc1ccccc1)NC(=O)[C@H](CC(=O)O)NC(=O)[C@H](Cc1ccccc1)NC(=O)[C@@H]1CCCN1C(=O)[C@@H]1CCCN1C(=O)[C@H](C)NC(=O)[C@@H](NC(=O)[C@H](CCCCN)NC(=O)[C@H](Cc1c[nH]cn1)NC(=O)[C@H](CCSC)NC(=O)[C@H](CCCCN)NC(=O)[C@@H]1CCCN1C(=O)[C@H](CCC(=O)O)NC(=O)[C@H](C)NC(=O)[C@@H](NC(=O)[C@H](CC(=O)O)NC(=O)CNC(=O)[C@H](CCC(N)=O)NC(=O)[C@H](CC(=O)O)NC(=O)[C@@H](N)CO)C(C)C)[C@@H](C)O)C(=O)N1CCC[C@H]1C(=O)N[C@@H](CCC(=O)O)C(=O)N[C@@H](CCC(=O)O)C(=O)N[C@@H](Cc1ccc(O)cc1)C(=O)N[C@@H](CC(C)C)C(=O)N[C@@H](CC(=O)O)C(=O)N[C@@H](CC(=O)O)C(=O)N[C@@H](CCC(=O)O)C(=O)N[C@@H](CO)C(=O)O` [Variegin, reference compound] was tested, and the “time to complete cleavage by thrombin” value (thrombin) was 4 h, the “Time to observe clot formation” value (blood; final concentration 75 micromolar) was 46 h and the “Time to observe clot formation” value (blood; final concentration 150 micromolar) was 52 to 66 h. For the same compound, the “Time to observe clot formation” value (blood; final concentration 300 micromolar) was 52 to 66 h, the “Multiplate AUC (U)” value ([1]; 1.5 h, peptide 150 μM) was 65.2 U and the “Multiplate AUC (U)” value ([1]; 1.5 h, peptide 300 μM) was 52.3 U. For the same compound, the “Multiplate AUC (U)” value ([1]; 4 h, peptide 150 μM) was 48.6 U, the “Multiplate AUC (U)” value ([1]; 4 h, peptide 300 μM) was 33.9 U and the “Multiplate AUC (U)” value ([1]; 24 h, peptide 150 μM) was 41.9 U. For the same compound, the “Multiplate AUC (U)” value ([1]; 24 h, peptide 300 μM) was 40.5 U and the “Multiplate AUC (U)” value ([1]; 48 h, peptide 300 μM) was 18.3 U.
For “hirulog-1: peptidyl bivalent thrombin inhibitor used as comparator drug”, the “time to occlusion (TTO)” value ([2]; 3 mg/kg intravenously) was 9.70 ± 3.15 min and 9.76 ± 3.15 min and the “time to occlusion (TTO)” value ([2]; 10 mg/kg intravenously) was 15.22 ± 3.39 min and 15.23 ± 3.39 min.
For `CC[C@H](C)[C@H](NC(=O)[C@H](CCCNC(=N)N)NC(=O)[C@@H]1CCCN1C(=O)[C@@H](NC(=O)[C@H](C)NC(=O)[C@@H](NC(=O)[C@H](CCC(N)=O)NC(=O)[C@H](Cc1c[nH]cn1)NC(=O)CNC(=O)CNC(=O)[C@@H](N)CO)[C@@H](C)O)C(C)C)C(=O)N[C@@H](CO)C(=O)N[C@@H](CCCCN)C(=O)N[C@@H](CCC(N)=O)C(=O)NCC(=O)N[C@@H](CC(C)C)C(=O)NCC(=O)NCC(=O)N[C@@H](CC(=O)O)C(=O)N[C@@H](Cc1ccccc1)C(=O)N[C@@H](CCC(=O)O)C(=O)N[C@@H](CCC(=O)O)C(=O)N[C@H](C(=O)N1CCC[C@H]1C(=O)N[C@@H](CO)C(=O)N[C@@H](CC(=O)O)C(=O)N[C@@H](CCC(=O)O)C(=O)N[C@H](C(=O)N[C@H](C(=O)N[C@@H](CCC(=O)O)C(=O)O)[C@@H](C)CC)[C@@H](C)CC)[C@@H](C)CC` [Peptide K10R] (H-SGGHQTAVPRISKQGLGGDFEEIPSDEIIE-OH; N-terminus and C-terminus assumed), the “fold gain in activity compared with avathrin” value (human α-thrombin) was 5 fold, the “Hill slope of thrombin amidolytic inhibition” value (human α-thrombin; 0 min pre-incubation where stated) was 1.10±0.01 and the IC50 (human α-thrombin; IC50 of inhibition of thrombin amidolytic activity, thrombin 0.81 nM, S2238 100 μM, without pre-incubation (0 min) where stated) was 1.15 ± 0.45 nM. For the same compound, the “Hill Slope” value (human α-thrombin; Table 2) was 1.10 ± 0.01 and the “time to complete cleavage by thrombin” value (thrombin; listed as K10β-avathrin) was 3 h.
